These results are taken from PubChem BioAssay (NCI).

Structures are written as SMILES. “And” between values parts separate entries of the source, which are not always exact repeats. Identical values can stand only once.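 Results reflect a 48-hour exposure of cells in 96-well plates to compound at five concentrations. The concentration for 50% growth inhibition is given as GI50. The concentration for full growth arrest is given as TGI.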

The first experiment relates to A498 renal. Briefly: DTP human tumour cell line panel, 48 h.
For orientation: GI50 means the concentration that inhibits growth by half. As a reminder, the TGI is the concentration giving total growth inhibition. The low end stands for greater sensitivity of the cells, the high end for lower sensitivity of the cells. Take `N#C/C=C(\c1ccc([N+](=O)[O-])cc1)n1nnc2cc(Cl)c(Cl)cc21`: the GI50 is 1.74 µM and the total growth inhibition concentration (TGI) came out at 3.43 µM.

In the case of `O=C(CC(O)(C(F)(F)F)C(F)(F)F)c1cc(CC(=O)C(O)(C(F)(F)F)C(F)(F)F)cc(CC(=O)C(O)(C(F)(F)F)C(F)(F)F)c1`, the TGI was found to be 5.43 µM.

In the case of `CCc1c(OC(C)=O)c2c(NC3OC(COC(C)=O)C(OC(C)=O)C(OC(C)=O)C3OC(C)=O)nc(OC)nc2oc1=O` (stereo not drawn), the TGI is above 100 µM.

With `O=c1c2ccccc2sc2cccc(NCCCN3CCN(CCCNc4cccc5sc6ccccc6c(=O)c45)CC3)c12`, the TGI is above 100 µM.

Consider `CC1(C)OCCn2c1nc1c(N3CCOCC3)nc(-c3cnc(N)nc3)nc12`, for which the GI50 is 0.133 µM and the TGI turned out to be 0.627 µM.

`O=C(c1c(F)ccc(NS(=O)(=O)N2CC[C@@H](F)C2)c1F)c1c[nH]c2ncc(-c3cnc(C4CC4)nc3)cc12`: the GI50 was 3.95 µM and 3.77 µM; the TGI was > 10 µM and 23.1 µM.

Regarding `COc1cc(-c2nn(-c3cccc(NC(=O)Nc4ccc(Cl)c(Cl)c4)c3)cc2-c2ccncc2)ccc1Cl`, the GI50 is 1.14 µM and the TGI is 4.59 µM.

In turn, `O=[N+]([O-])c1ccc(-n2nnc(C3=NCCN3)c2-c2ccc(Cl)cc2)cc1` registered a TGI above 100 µM.

As to `O=C(c1ccc(Cl)cc1)c1cnc(Nc2ccccc2Cl)s1`, the TGI came out at 27.3 µM.

In the case of `Nc1nc(N)c(N=Nc2ccc([As](=O)(O)O)cc2)c(=O)[nH]1`, the TGI was above 100 µM.

For the next experiment, the system named is HL-60(TB) leukemia. Briefly: DTP human tumour cell line panel, 48 h.
Regarding `COC12C=C/C(=C(/C(=O)OCc3ccncc3)C(=O)CCCCCCCCC3(OC)C=C/C(=C(/C(=O)OCc4ccncc4)C(=O)CCCCCCCC1)O3)O2`, the GI50 is 0.371 µM and the TGI was found to be 1.96 µM.

Turning to `CCOC(=O)C(C)(C)Oc1ccc2c(C)c(-c3ccc(Cl)cc3)c(=O)oc2c1`, the TGI was above 100 µM.

Take `COc1cc(CNCCCN2C(=O)c3ccc4c5c(ccc(c35)C2=O)C(=O)N(CCCNCc2cc(OC)c(OC)c(OC)c2)C4=O)cc(OC)c1OC`: the GI50 was 0.919 µM and the TGI turned out to be 1.97 µM.

In the case of `O=c1[nH]c(=O)n(C2CC(O)C(CO)O2)cc1CO` (stereo not drawn), the GI50 was above 100 µM and the TGI was above 100 µM.

For `Cc1nc2cnc(N)c(C#Cc3cncc(C(=O)Nc4ccc(CN5CCN(C)CC5)c(C(F)(F)F)c4)c3)c2nc1C`, the GI50 was 0.138 µM and the TGI was 3.8 µM.

Consider `Cc1csc(Nc2nc(-c3cccc(Br)c3)nc(C(Cl)(Cl)Cl)n2)n1`, for which the GI50 is 1.04 µM and the TGI is 3.96 µM.

In the case of `CS(=O)(=O)CCCn1c(=O)c(Oc2ccc(F)cc2F)cc2cnc(NC3CCOCC3)nc21`, the GI50 is above 25 µM and the TGI was above 25 µM.

In the case of `N#C/C=C(\c1ccc([N+](=O)[O-])cc1)n1nnc2cc(Cl)c(Cl)cc21`, the GI50 was 2.71 µM and the TGI stood at 41.1 µM.

Consider `O=C(CC(O)(C(F)(F)F)C(F)(F)F)c1cc(CC(=O)C(O)(C(F)(F)F)C(F)(F)F)cc(CC(=O)C(O)(C(F)(F)F)C(F)(F)F)c1`, for which the TGI was above 10 µM.

In turn, `CCc1c(OC(C)=O)c2c(NC3OC(COC(C)=O)C(OC(C)=O)C(OC(C)=O)C3OC(C)=O)nc(OC)nc2oc1=O` (stereo not drawn) showed a TGI above 100 µM.

The molecule `O=c1c2ccccc2sc2cccc(NCCCN3CCN(CCCNc4cccc5sc6ccccc6c(=O)c45)CC3)c12` came in with a TGI above 100 µM.

Take `CC1(C)OCCn2c1nc1c(N3CCOCC3)nc(-c3cnc(N)nc3)nc12`: the GI50 is 0.141 µM and the TGI is above 31.3 µM.

In the case of `O=C(c1c(F)ccc(NS(=O)(=O)N2CC[C@@H](F)C2)c1F)c1c[nH]c2ncc(-c3cnc(C4CC4)nc3)cc12`, the GI50 is 7.69 µM and 6.11 µM; the TGI is > 10 µM and 41.3 µM.

Consider `COc1cc(-c2nn(-c3cccc(NC(=O)Nc4ccc(Cl)c(Cl)c4)c3)cc2-c2ccncc2)ccc1Cl`, for which the GI50 is 1.66 µM and the TGI is above 50 µM.

As for `O=[N+]([O-])c1ccc(-n2nnc(C3=NCCN3)c2-c2ccc(Cl)cc2)cc1`, the total growth inhibition concentration (TGI) was above 100 µM.

`O=C(c1ccc(Cl)cc1)c1cnc(Nc2ccccc2Cl)s1` gave a TGI above 100 µM.

`Nc1nc(N)c(N=Nc2ccc([As](=O)(O)O)cc2)c(=O)[nH]1` came in with a TGI above 100 µM.

For the next experiment, the system named is HCT-15 colon. Briefly: DTP human tumour cell line panel, 48 h.
On to `COC12C=C/C(=C(/C(=O)OCc3ccncc3)C(=O)CCCCCCCCC3(OC)C=C/C(=C(/C(=O)OCc4ccncc4)C(=O)CCCCCCCC1)O3)O2`, for which the GI50 is 0.548 µM and the total growth inhibition concentration (TGI) came to 1.74 µM.

As to `CCOC(=O)C(C)(C)Oc1ccc2c(C)c(-c3ccc(Cl)cc3)c(=O)oc2c1`, the TGI is above 100 µM.

For `COc1cc(CNCCCN2C(=O)c3ccc4c5c(ccc(c35)C2=O)C(=O)N(CCCNCc2cc(OC)c(OC)c(OC)c2)C4=O)cc(OC)c1OC`, the GI50 was 1.18 µM and the TGI was 3.55 µM.

Regarding `O=c1[nH]c(=O)n(C2CC(O)C(CO)O2)cc1CO` (stereo not drawn), the GI50 was above 100 µM and the TGI was above 100 µM.

On to `Cc1nc2cnc(N)c(C#Cc3cncc(C(=O)Nc4ccc(CN5CCN(C)CC5)c(C(F)(F)F)c4)c3)c2nc1C`, for which the GI50 is 0.912 µM and the TGI was found to be 10.9 µM.

For `Cc1csc(Nc2nc(-c3cccc(Br)c3)nc(C(Cl)(Cl)Cl)n2)n1`, the GI50 was 4.95 µM and the TGI is above 100 µM.

Consider `CS(=O)(=O)CCCn1c(=O)c(Oc2ccc(F)cc2F)cc2cnc(NC3CCOCC3)nc21`, for which the GI50 is above 25 µM and the TGI is above 25 µM.

Consider `N#C/C=C(\c1ccc([N+](=O)[O-])cc1)n1nnc2cc(Cl)c(Cl)cc21`, for which the GI50 is 1.85 µM and the TGI came out at 5.36 µM.

Molecule `O=C(CC(O)(C(F)(F)F)C(F)(F)F)c1cc(CC(=O)C(O)(C(F)(F)F)C(F)(F)F)cc(CC(=O)C(O)(C(F)(F)F)C(F)(F)F)c1` came in with a concentration for total growth inhibition (TGI) above 8.79 µM.

With `CCc1c(OC(C)=O)c2c(NC3OC(COC(C)=O)C(OC(C)=O)C(OC(C)=O)C3OC(C)=O)nc(OC)nc2oc1=O` (stereo not drawn), the TGI was above 100 µM.

On to `O=c1c2ccccc2sc2cccc(NCCCN3CCN(CCCNc4cccc5sc6ccccc6c(=O)c45)CC3)c12`, for which the TGI is above 100 µM.

On to `CC1(C)OCCn2c1nc1c(N3CCOCC3)nc(-c3cnc(N)nc3)nc12`, for which the concentration for 50% growth inhibition (GI50) is 0.241 µM and the TGI is above 100 µM.

As for `O=C(c1c(F)ccc(NS(=O)(=O)N2CC[C@@H](F)C2)c1F)c1c[nH]c2ncc(-c3cnc(C4CC4)nc3)cc12`, the GI50 is 5.69 µM and 5.21 µM; the TGI is > 10 µM and 40.6 µM.

Turning to `COc1cc(-c2nn(-c3cccc(NC(=O)Nc4ccc(Cl)c(Cl)c4)c3)cc2-c2ccncc2)ccc1Cl`, the GI50 is 1.23 µM and the TGI is above 50 µM.

The molecule `O=[N+]([O-])c1ccc(-n2nnc(C3=NCCN3)c2-c2ccc(Cl)cc2)cc1` registered a TGI above 100 µM.

In the case of `O=C(c1ccc(Cl)cc1)c1cnc(Nc2ccccc2Cl)s1`, the TGI was 51.6 µM.

Molecule `Nc1nc(N)c(N=Nc2ccc([As](=O)(O)O)cc2)c(=O)[nH]1` returned a TGI above 100 µM.
